Measured values from patent US10654889B2, “Peptide having anticancer activity, and pharmaceutical composition, health functional food composition and functional cosmetic composition for preventing and treating cancer comprising the same as active ingredient” (INDUSTRY-UNIVERSITY COOPERATION FOUNDATION HANYANG …, priority 2016, dated 2020).

Experiments:
[1] = system: breast cancer cell line (MDA-MB-231); test: Cell growth inhibition and apoptosis induction, breast cancer cell line; assay type: cell-based; conditions: for growth inhibition and apoptosis-inducing effects: 0.05-10 μM, 0-96 hours; for growth inhibition and apoptosis-inducing effects (cell images, MTT assay, FIG. 6): compared to the untreated control, 48 hours images, 96 hours MTT
Procedure: (§1) An embryonic kidney cell line (293T), a breast cancer cell line (MDA-MB-231), and colon cancer cell lines (HCT116 and HT29) were inoculated in a 96-well plate at a density of 3,000 cells/well, and 50 μL of a culture fluid was added thereto. The resulting mixture was cultured for an hour under 37° C./5% CO2 conditions. Each of the peptides prepared in Example 3 was added at an increasing concentration of 0.05, 1, 2, 3 and 10 μM to the well plate inoculated with each of the cell lines, and the resulting mixture was cultured for 0, 24, 48, 72 and 96 hours under 37° C./5% CO2 conditions. When the culture was completed, the cells were observed and their morphological changes were imaged using an inverted phase contrast microscope.

[2] = system: cancer cells; conditions: cell and mouse xenograft models; Grant et al. 2012; cited from earlier work
[3] = system: embryonic kidney cell line (293T); test: Cell growth inhibition and apoptosis induction, embryonic kidney cell line; assay type: cell-based; conditions: for growth inhibition and apoptosis-inducing effects: 0.05-10 μM, 0-96 hours; for growth inhibition and apoptosis-inducing effects (cell images, MTT assay, FIG. 6): compared to the untreated control, 48 hours images, 96 hours MTT
Procedure: as §1

[4] = system: colon cancer cell line HCT116; test: Cell growth inhibition and apoptosis induction, colon cancer cell line HCT116; assay type: cell-based; conditions: for growth inhibition and apoptosis-inducing effects: 0.05-10 μM, 0-96 hours; for growth inhibition and apoptosis-inducing effects (cell images, MTT assay, FIG. 6): compared to the untreated control, 48 hours images, 96 hours MTT
Procedure: as §1

[5] = system: colon cancer cell line HT29; test: Cell growth inhibition and apoptosis induction, colon cancer cell line HT29; assay type: cell-based; conditions: for growth inhibition and apoptosis-inducing effects: 0.05-10 μM, 0-96 hours; for growth inhibition and apoptosis-inducing effects (cell images, MTT assay, FIG. 6): compared to the untreated control, 48 hours images, 96 hours MTT
Procedure: as §1

[6] = system: liver cancer cell line (Hep3B); test: Cell growth inhibition and apoptosis, liver cancer cell line (MTT, CCK, Crystal Violet); assay type: cell-based; conditions: Hep3B treated once with peptide; compared to 5-2C-treated group
Text: The peptides were used to analyze effects on cell growth inhibition and apoptosis in the liver cancer cell line (Hep3B). FIGS. […] 8C and 8D graphically show the growth inhibition and apoptosis-inducing effects of the respective peptides at different concentrations. […] Therefore, it can be seen that the peptide of SEQ ID NO: 1 according to the present invention is a peptide having a sequence composed of an optimized number of amino acids to have anticancer activity.

[7] = system: leukemia cells; test: Growth inhibition and apoptosis in leukemia cells; assay type: cell-based; conditions: compared with Peptide 5-2C
[8] = system: breast cancer cells; test: Growth inhibition and apoptosis in breast cancer cells; assay type: cell-based; conditions: compared with Peptide 5-2C
[9] = system: colon cancer cells; test: Growth inhibition and apoptosis in colon cancer cells; assay type: cell-based; conditions: compared with Peptide 5-2C
[10] = system: liver cancer cells; test: Growth inhibition and apoptosis in liver cancer cells; assay type: cell-based; conditions: compared with Peptide 5-2C
[11] = system: kidney-derived cells; test: Growth inhibition and apoptosis in kidney-derived cells; assay type: cell-based; conditions: compared with Peptide 5-2C
[12] = system: various cells; test: IC50 in various cells (MTT, FIG. 16); assay type: cell-based; conditions: compared with Peptide 5-2C

Ac-PQRcrgdkgpdc-amide [Peptide 5-2-32C]
growth inhibition and apoptosis-inducing effects [1]: no growth inhibition and apoptosis-inducing effects at all

Ac-YPQcrgdkgpdc-amide [Peptide 5-2-31C]
growth inhibition and apoptosis-inducing effects [1]: no growth inhibition and apoptosis-inducing effects at all

CRGDKGPDC [iRGD, reference compound]
growth inhibition and apoptosis-inducing effects [1]: no growth inhibition and apoptosis-inducing effects at all

CCOc1ccccc1C1CC(=O)Nc2cc3c(cc21)OCO3 (centres unmarked) [FQI1, Factor Quinolinone Inhibitor 1]
inhibition of cancer cells versus normal cells [2]: successful in inhibiting only the cancer cells without exerting any influence on normal cells

Ac-NYPQRcrgdkgpdc-amide [Peptide 5-2-51C]
growth inhibition and apoptosis-inducing effects [1]: exhibited growth inhibition and apoptosis-inducing effects | growth inhibition and apoptosis-inducing effects (cell images, MTT assay, FIG. 6) [1]: superior growth inhibition and apoptosis-inducing effects | growth inhibition and apoptosis-inducing effects [3]: exhibited growth inhibition and apoptosis-inducing effects | growth inhibition and apoptosis-inducing effects (cell images, MTT assay, FIG. 6) [3]: superior growth inhibition and apoptosis-inducing effects | growth inhibition and apoptosis-inducing effects [4]: exhibited growth inhibition and apoptosis-inducing effects | growth inhibition and apoptosis-inducing effects (cell images, MTT assay, FIG. 6) [4]: superior growth inhibition and apoptosis-inducing effects | growth inhibition and apoptosis-inducing effects [5]: exhibited growth inhibition and apoptosis-inducing effects | growth inhibition and apoptosis-inducing effects (cell images, MTT assay, FIG. 6) [5]: superior growth inhibition and apoptosis-inducing effects

Ac-YPQRPcrgdkgpdc-amide [Peptide 5-2-52C]
growth inhibition and apoptosis-inducing effects [1]: exhibited growth inhibition and apoptosis-inducing effects | growth inhibition and apoptosis-inducing effects (cell images, MTT assay, FIG. 6) [1]: superior growth inhibition and apoptosis-inducing effects | growth inhibition and apoptosis-inducing effects [3]: exhibited growth inhibition and apoptosis-inducing effects | growth inhibition and apoptosis-inducing effects (cell images, MTT assay, FIG. 6) [3]: superior growth inhibition and apoptosis-inducing effects | growth inhibition and apoptosis-inducing effects [4]: exhibited growth inhibition and apoptosis-inducing effects | growth inhibition and apoptosis-inducing effects (cell images, MTT assay, FIG. 6) [4]: superior growth inhibition and apoptosis-inducing effects | growth inhibition and apoptosis-inducing effects [5]: exhibited growth inhibition and apoptosis-inducing effects | growth inhibition and apoptosis-inducing effects (cell images, MTT assay, FIG. 6) [5]: superior growth inhibition and apoptosis-inducing effects

Ac-YPQRcrgdkgpdc-amide [Peptide 5-2-4C]
growth inhibition and apoptosis-inducing effects [1]: exhibited growth inhibition and apoptosis-inducing effects | growth inhibition and apoptosis-inducing effects (cell images, MTT assay, FIG. 6) [1]: superior growth inhibition and apoptosis-inducing effects | growth inhibition and apoptosis-inducing effects [3]: exhibited growth inhibition and apoptosis-inducing effects | growth inhibition and apoptosis-inducing effects (cell images, MTT assay, FIG. 6) [3]: superior growth inhibition and apoptosis-inducing effects | growth inhibition and apoptosis-inducing effects [4]: exhibited growth inhibition and apoptosis-inducing effects | growth inhibition and apoptosis-inducing effects (cell images, MTT assay, FIG. 6) [4]: superior growth inhibition and apoptosis-inducing effects | growth inhibition and apoptosis-inducing effects [5]: exhibited growth inhibition and apoptosis-inducing effects | growth inhibition and apoptosis-inducing effects (cell images, MTT assay, FIG. 6) [5]: superior growth inhibition and apoptosis-inducing effects | change in IC50 values observed for 3 days [6]: steadily decreasing over 3 days, a level of which was highly similar to that of Peptide 5-2C | growth inhibition and apoptosis [7]: a tendency very similar to Peptide 5-2C | growth inhibition and apoptosis [8]: a tendency very similar to Peptide 5-2C | growth inhibition and apoptosis [9]: a tendency very similar to Peptide 5-2C | growth inhibition and apoptosis [10]: a tendency very similar to Peptide 5-2C | growth inhibition and apoptosis [11]: a tendency very similar to Peptide 5-2C | IC50 value at 48 hours [12]: very similar to that of Peptide 5-2C
